The values that follow are results of earlier work, collected in US6903092B2, “Naphthamide neurokinin antagonists for use as medicaments” (priority 2000, dated 2005).

Assay in series [1]: not given
This is another data set of the same source.

The test system of series [2] is Marmoset. As to conditions: Walsh et al., Psychopharmacology 121: 186-191, 1995.
Assay in series [3]: not given
The source holds these as a separate data set.

For series [4] the following is noted: Vassout et al, Neuropeptides 26/S1: 38, 1994; only at 30 mg/kg bid.
The mark [5] stands for this setting: Stratton et al., Eur. J. Pharmacol. 250: R11-12, 1993.
Where [6] appears, read: Teixeira et al., Eur J Pharmacol 311(1): 7-14, 1996.
[7] abbreviates: Walsh et al., Psychopharmacology 121: 186-191, 1995.
Where [8] appears, read: Vassout et al, Neuropeptides 26/S1: 38, 1994.

Like-named read-outs stand apart in the source and are kept apart here. Square brackets hold non-standard residues; d marks the D form. Peptide text beside a SMILES is read from it. * marks the point of attachment. Cyclohexanecarbonyl = O=C(C1CCCCC1)*

Consider `C[C@H](NC(=O)CNC(=O)C1CCCCC1)C(=O)N[C@H](Cc1c[nH]c2ccccc12)C(=O)N[C@@H](Cc1ccccc1)C(=O)N(C)C` [GR100679] (Cyclohexanecarbonyl-GA[dW]F-NMe2), for which the “Outcome, Light-dark box” value under setting [5] is “anxiolytic”.
As for `CC(=O)NC1(c2ccccc2)CCN(CC[C@H](CN(C)C(=O)c2ccccc2)c2ccc(Cl)c(Cl)c2)CC1` [SR48968], the “Outcome, Elevated plus-maze” value in series [1] (setting [6]) is “anxiolytic”. Further, the “Outcome, Light-dark box” value by setting is: under setting [5], “anxiolytic”; under setting [7], “anxiolytic”. In addition, the “Outcome, Marmoset human intruder” value in series [2] was “anxiolytic”.
As to `Cc1cc(C)cc(C(=O)N2CC[C@H](NCc3ccnc4ccccc34)C[C@H]2Cc2ccccc2)c1` [CGP 49823], the “Outcome, Elevated plus-maze” value in series [1] (setting [8]) was “inactive”. In addition, the “Outcome, Social interaction” value in series [3] (File, Pharm Bio B 58(3): 747-752, 1997) is “anxiolytic”. Moreover, the “Outcome, Social interaction test” value in series [3] (setting [8]) was “anxiolytic”. Further, the “Outcome, Forced swim test (depression model)” value in series [4] was “antidepressant”.
As for `CN(Cc1ccccc1)C(=O)[C@H](Cc1ccc2ccccc2c1)NC(=O)[C@@H]1C[C@@H](O)CN1C(=O)c1cn(C)c2ccccc12` [FK888], the “Outcome, Elevated plus-maze” value in series [1] (setting [6]) is listed as “anxiolytic”.
Take `COC1(C[S@@+]([O-])c2ccccc2)CCN(CCc2c[nH]c3ccc(F)cc23)CC1` [GR159897]: the “Outcome, Light-dark box” value under setting [7] is recorded as “anxiolytic”. In series [2], the “Outcome, Marmoset human intruder” value is given as “anxiolytic”.
